According to patent publication US10111875B2, “Pyrrolopyrimidine compounds and uses thereof” (HUTCHISON MEDIPHARMA LIMITED, priority 2010, dated 2018):

biological target: Recombinant human JAK1 catalytic domain (Homo sapiens (Human), UniProt P23458); experiment: JAK1 kinase assay (Z'-LYTE Tyr 6 Peptide); assay type: biochemical; settings: JAK1 kinase assay, 0.3 uM concentration; read-out: inhibition percentage (IR %)
Experimental: JAK1/2/3 kinase assay are performed in vitro using Kit-Tyr 6 Peptide (Invitrogen, Cat. No. PV4122). TYK2 kinase assay are performed in vitro using Z′-LYTE™ Kinase Assay Kit-Tyr 3 Peptide (Invitrogen, Cat. No. PV3192). […] All compounds are initially tested at 8 different concentrations (1 μM down to 0.0003 μM) using a 1:3 serial dilution scheme.

Sequence of Recombinant human JAK1 catalytic domain (P23458 875-1153): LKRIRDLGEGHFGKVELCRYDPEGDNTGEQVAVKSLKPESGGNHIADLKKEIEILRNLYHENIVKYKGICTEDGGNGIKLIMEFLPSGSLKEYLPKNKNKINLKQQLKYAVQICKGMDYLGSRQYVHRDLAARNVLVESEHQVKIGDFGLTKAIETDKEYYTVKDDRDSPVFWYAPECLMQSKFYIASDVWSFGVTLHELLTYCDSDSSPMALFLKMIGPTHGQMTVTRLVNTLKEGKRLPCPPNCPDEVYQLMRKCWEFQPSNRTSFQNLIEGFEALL

| SMILES | inhibition at 0.3 µM [%] |
| --- | --- |
| CN(c1ccc(C(=O)NC2c3ccccc3C[C@H]2O)cc1F)[C@@H]1CCN(c2ncnc3[nH]ccc23)C1 (single isomer, unassigned) [Compound 204] | 50 to 100 |
| CN([C@@H]1CCN(c2ncnc3[nH]ccc23)C1)S(=O)(=O)c1cccc([N+](=O)[O-])c1 [Compound 12] | 50 to 100 |
| CN(C)S(=O)(=O)N(C)[C@@H]1CCN(c2ncnc3[nH]ccc23)C1 [Compound 14] | 50 to 100 |
| CN([C@@H]1CCN(c2ncnc3[nH]ccc23)C1)S(=O)(=O)N1CCCC1 [Compound 15] | 50 to 100 |
| CN(C(=O)CS(C)(=O)=O)[C@@H]1CCN(c2ncnc3[nH]ccc23)C1 [Compound 27] | 50 to 100 |
| CN([C@@H]1CCN(c2ncnc3[nH]ccc23)C1)S(=O)(=O)C1CCCCC1 [Compound 28] | 50 to 100 |
| CN(C(=O)N1CCC[C@@H]1C(N)=O)[C@@H]1CCN(c2ncnc3[nH]ccc23)C1 [Compound 35] | 20 to 50 |
| C#CCN(C1CCCC1)[C@@H]1CCN(c2ncnc3[nH]ccc23)C1 [Compound 39, (R)—N-cyclopentyl-N-(prop-2-ynyl)-1-(7H-pyrrolo[2,3-d]pyrimidin-4-yl)pyrrolidin-3-amine] | 20 to 50 |
| C=CCN(C1CCCC1)[C@@H]1CCN(c2ncnc3[nH]ccc23)C1 [Compound 40] | 50 to 100 |
| CCN(c1ccc(S(C)(=O)=O)cn1)[C@@H]1CCN(c2ncnc3[nH]ccc23)C1 [Compound 44] | 20 to 50 |
| N#CCN(C1CCCC1)[C@@H]1CCN(c2ncnc3[nH]ccc23)C1 [Compound 45] | 50 to 100 |
| N#Cc1ccc2c(c1)CCN2C1CCN(c2ncnc3[nH]ccc23)C1 (stereo not drawn) [Compound 46] | 50 to 100 |
| CCS(=O)(=O)N(C)[C@@H]1CCN(c2ncnc3[nH]ccc23)C1 [Compound 48] | 50 to 100 |
| CC(C)S(=O)(=O)N(C)[C@@H]1CCN(c2ncnc3[nH]ccc23)C1 [Compound 49] | 50 to 100 |
| N#CCN(C1CCC1)[C@@H]1CCN(c2ncnc3[nH]ccc23)C1 [Compound 52] | 50 to 100 |
| CN(C1CCCC1)[C@@H]1CCN(c2ncnc3[nH]ccc23)C1 [Compound 53] | 50 to 100 |
| C#CCN(C1CCCCC1)[C@@H]1CCN(c2ncnc3[nH]ccc23)C1 [Compound 54] | 20 to 50 |
| N#CCN(C1CC1)[C@@H]1CCN(c2ncnc3[nH]ccc23)C1 [Compound 55] | 50 to 100 |
| C#CCN(C1CCOC1)[C@@H]1CCN(c2ncnc3[nH]ccc23)C1 (stereo partly drawn) [Compound 56] | 50 to 100 |

| SMILES | inhibition at 0.3 µM [%] |
| --- | --- |
| CN([C@@H]1CCN(c2ncnc3[nH]ccc23)C1)S(=O)(=O)C1CC1 [Compound 57] | 20 to 50 |
| C#CCN(c1ccc(S(C)(=O)=O)cn1)[C@@H]1CCN(c2ncnc3[nH]ccc23)C1 [Compound 58] | 20 to 50 |
| CN(C(=O)N1CCCC1C(F)(F)F)[C@@H]1CCN(c2ncnc3[nH]ccc23)C1 (stereo partly drawn) [Compound 59] | 50 to 100 |
| CN(c1ccc(S(C)(=O)=O)cn1)[C@@H]1CCN(c2ncnc3[nH]ccc23)C1 [Compound 61] | 50 to 100 |
| CN(c1ccc(C(F)(F)F)nn1)[C@@H]1CCN(c2ncnc3[nH]ccc23)C1 [Compound 62] | 50 to 100 |
| CN(c1ccnc(Cl)n1)[C@@H]1CCN(c2ncnc3[nH]ccc23)C1 [Compound 63, (R)—N-(1-(7H-pyrrolo[2,3-d]pyrimidin-4-yl)pyrrolidin-3-yl)-2-chloro-N-methylpyrimidin-4-amine] | 50 to 100 |
| Cc1cc(N(C)[C@@H]2CCN(c3ncnc4[nH]ccc34)C2)nc(Cl)c1C#N [Compound 72] | 50 to 100 |
| Cc1cc(Cl)nc(N(C)[C@@H]2CCN(c3ncnc4[nH]ccc34)C2)c1C#N [Compound 73] | 50 to 100 |
| CN(c1ncc([N+](=O)[O-])cc1Cl)[C@@H]1CCN(c2ncnc3[nH]ccc23)C1 [Compound 74] | 50 to 100 |
| Cc1cc([N+](=O)[O-])cnc1N(C)[C@@H]1CCN(c2ncnc3[nH]ccc23)C1 [Compound 75] | 20 to 50 |
| Cc1cc(N(C)[C@@H]2CCN(c3ncnc4[nH]ccc34)C2)ncc1[N+](=O)[O-] [Compound 77] | 50 to 100 |
| CN(c1ccc([N+](=O)[O-])c(N)n1)[C@@H]1CCN(c2ncnc3[nH]ccc23)C1 [Compound 78] | 20 to 50 |
| CN(c1nc(Cl)nc2ccccc12)[C@@H]1CCN(c2ncnc3[nH]ccc23)C1 [Compound 79] | 50 to 100 |
| CN(c1ncnc2ccccc12)[C@@H]1CCN(c2ncnc3[nH]ccc23)C1 [Compound 80] | 50 to 100 |
| CN(c1ccc(Cl)nn1)[C@@H]1CCN(c2ncnc3[nH]ccc23)C1 [Compound 85] | 50 to 100 |
| COc1cc2ncnc(N(C)[C@@H]3CCN(c4ncnc5[nH]ccc45)C3)c2cc1OC [Compound 86] | 50 to 100 |
| CN(c1nc(Cl)c(C#N)cc1F)[C@@H]1CCN(c2ncnc3[nH]ccc23)C1 [Compound 87] | 50 to 100 |
| CN(c1ccn2nccc2n1)[C@@H]1CCN(c2ncnc3[nH]ccc23)C1 [Compound 88] | 20 to 50 |

Next, values leading:

| inhibition at 0.3 µM [%] | SMILES |
| --- | --- |
| 50 to 100 | CCCC(=O)N(C)[C@@H]1CCN(c2ncnc3[nH]ccc23)C1 [Compound 3] |
| 20 to 50 | COCC(=O)N(C)[C@@H]1CCN(c2ncnc3[nH]ccc23)C1 [Compound 4] |
| 20 to 50 | CN(C(=O)c1cccnc1)[C@@H]1CCN(c2ncnc3[nH]ccc23)C1 [Compound 5] |
| 50 to 100 | CN(C(=O)C1(C#N)CC1)[C@@H]1CCN(c2ncnc3[nH]ccc23)C1 [Compound 6] |
| 20 to 50 | CN(C(=O)c1cccc(C#N)c1)[C@@H]1CCN(c2ncnc3[nH]ccc23)C1 [Compound 8] |
| 20 to 50 | CN([C@@H]1CCN(c2ncnc3[nH]ccc23)C1)S(=O)(=O)c1ccc(C#N)cc1 [Compound 9] |
| 50 to 100 | CN([C@@H]1CCN(c2ncnc3[nH]ccc23)C1)S(=O)(=O)c1cccc(C#N)c1 [Compound 10] |
| 20 to 50 | CN([C@@H]1CCN(c2ncnc3[nH]ccc23)C1)S(=O)(=O)c1ccc([N+](=O)[O-])cc1 [Compound 11] |
| 20 to 50 | COc1ccc(S(=O)(=O)N(C)[C@@H]2CCN(c3ncnc4[nH]ccc34)C2)cc1 [Compound 13] |
| 50 to 100 | CN(C(=O)Nc1cccc(C#N)c1)[C@@H]1CCN(c2ncnc3[nH]ccc23)C1 [Compound 16, (R)-1-(1-(7H-pyrrolo[2,3-d]pyrimidin-4-yl)pyrrolidin-3-yl)-3-(3-cyanophenyl)-1-methylurea] |
| 50 to 100 | CN(C(=O)Nc1ccc(C#N)cc1)[C@@H]1CCN(c2ncnc3[nH]ccc23)C1 [Compound 17] |
| 20 to 50 | CN(C(=O)CC1CC1)[C@@H]1CCN(c2ncnc3[nH]ccc23)C1 [Compound 19] |
| 50 to 100 | CN(C(=O)Cc1ccc(C#N)cc1)[C@@H]1CCN(c2ncnc3[nH]ccc23)C1 [Compound 20] |
| 50 to 100 | CN(C(=O)CCc1c(Cl)cccc1Cl)[C@@H]1CCN(c2ncnc3[nH]ccc23)C1 [Compound 21] |
| 50 to 100 | CN(C(=O)CO)[C@@H]1CCN(c2ncnc3[nH]ccc23)C1 [Compound 24] |
| 50 to 100 | CN(C(=O)N[C@@H]1c2ccccc2C[C@H]1O)[C@@H]1CCN(c2ncnc3[nH]ccc23)C1 [Compound 29, 1-((R)-1-(7H-pyrrolo[2,3-d]pyrimidin-4-yl)pyrrolidin-3-yl)-3-((1R,2R)-2-hydroxy-2,3-dihydro-1H-inden-1-yl)-1-methylurea] |
| 50 to 100 | CN(C(=O)Nc1ccc(C(F)(F)F)cc1)[C@@H]1CCN(c2ncnc3[nH]ccc23)C1 [Compound 30] |
| 50 to 100 | CN(C(=O)Nc1ccc(C#N)c(F)c1)[C@@H]1CCN(c2ncnc3[nH]ccc23)C1 [Compound 31] |

| inhibition at 0.3 µM [%] | SMILES |
| --- | --- |
| 50 to 100 | CN(C(=O)Nc1ccc(Cl)cc1)[C@@H]1CCN(c2ncnc3[nH]ccc23)C1 [Compound 33] |
| 50 to 100 | CN(C(=O)N1CCC[C@@H]1C#N)[C@@H]1CCN(c2ncnc3[nH]ccc23)C1 [Compound 38] |
| 50 to 100 | N#Cc1ccc(N(C2CC2)[C@@H]2CCN(c3ncnc4[nH]ccc34)C2)nc1 [Compound 41] |
| 50 to 100 | COc1nc(N(C)[C@@H]2CCN(c3ncnc4[nH]ccc34)C2)ccc1C#N [Compound 42] |
| 20 to 50 | CN([C@@H]1CCN(c2ncnc3[nH]ccc23)C1)S(=O)(=O)c1c(F)cccc1F [Compound 43] |
| 50 to 100 | CN(c1ccc(C#N)nn1)[C@@H]1CCN(c2ncnc3[nH]ccc23)C1 [Compound 60] |
| 50 to 100 | CN(CCC#N)[C@@H]1CCN(c2ncnc3[nH]ccc23)C1 [Compound 64] |
| 20 to 50 | C#CCN(C)[C@@H]1CCN(c2ncnc3[nH]ccc23)C1 [Compound 65] |
| 20 to 50 | CN(c1ccc(F)cn1)[C@@H]1CCN(c2ncnc3[nH]ccc23)C1 [Compound 66] |
| 50 to 100 | CN(c1ccc(Cl)cn1)[C@@H]1CCN(c2ncnc3[nH]ccc23)C1 [Compound 67] |
| 50 to 100 | CN(c1ccc(Br)cn1)[C@@H]1CCN(c2ncnc3[nH]ccc23)C1 [Compound 68] |
| 50 to 100 | CN(c1ccc([N+](=O)[O-])cn1)[C@@H]1CCN(c2ncnc3[nH]ccc23)C1 [Compound 70] |
| 50 to 100 | CN(c1ccc(C#N)cn1)[C@@H]1CCN(c2ncnc3[nH]ccc23)C1 [Compound 71] |
| 20 to 50 | CN(c1ccc(C#N)nc1)[C@@H]1CCN(c2ncnc3[nH]ccc23)C1 [Compound 76] |
| 50 to 100 | N#Cc1ccc(N[C@@H]2CCN(c3ncnc4[nH]ccc34)C2)nc1 [Compound 81] |
| 50 to 100 | CN(c1ncc(C#N)cc1Cl)[C@@H]1CCN(c2ncnc3[nH]ccc23)C1 [Compound 83] |
| 50 to 100 | CN(c1cnc(C#N)cn1)[C@@H]1CCN(c2ncnc3[nH]ccc23)C1 [Compound 84] |
